Measurements taken from ChEMBL document CHEMBL1139192, “Novel bis(indolyl)maleimide pyridinophanes that are potent, selective inhibitors of glycogen synthase kinase-3” (Bioorg Med Chem Lett, 2007).

Target: Glycogen synthase kinase-3 beta (Homo sapiens, UniProt P49841)
Test: Inhibition of human recombinant GSK3-beta

Glycogen synthase kinase-3 beta, sequence (P49841 whole entry): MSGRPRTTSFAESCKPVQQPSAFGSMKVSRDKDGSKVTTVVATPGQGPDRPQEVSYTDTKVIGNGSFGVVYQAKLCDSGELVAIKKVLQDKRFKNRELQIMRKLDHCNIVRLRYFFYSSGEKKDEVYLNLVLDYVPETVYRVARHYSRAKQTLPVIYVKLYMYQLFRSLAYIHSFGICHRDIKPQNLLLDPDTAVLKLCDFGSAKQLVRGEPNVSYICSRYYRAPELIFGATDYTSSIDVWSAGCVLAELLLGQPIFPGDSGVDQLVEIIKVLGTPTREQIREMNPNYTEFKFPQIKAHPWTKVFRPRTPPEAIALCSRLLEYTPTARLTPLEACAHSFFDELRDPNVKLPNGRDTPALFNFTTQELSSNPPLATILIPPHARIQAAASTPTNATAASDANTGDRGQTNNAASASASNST

- IC50: 37 nM
Structure (SMILES): CN(C)c1nc2ccc1CCCn1cc(c3ccccc31)C1=C(C(=O)NC1=O)c1cn(c3ccccc13)CCC2
